Here are results for 34 compounds from ChEMBL document CHEMBL1145878, “Synthesis and evaluation of isatins and thiosemicarbazone derivatives against cruzain, falcipain-2 and rhodesain” (Bioorg Med Chem Lett, 2003).

Broadly, the IC50 is the concentration at which inhibition is half-maximal. Low values mean inhibition by little substance, high ones a need for much substance.

In assay [1] the target is T1, Falcipain 2 (Plasmodium falciparum, UniProt Q9N6S8).
T1 sequence (Q9N6S8 whole entry): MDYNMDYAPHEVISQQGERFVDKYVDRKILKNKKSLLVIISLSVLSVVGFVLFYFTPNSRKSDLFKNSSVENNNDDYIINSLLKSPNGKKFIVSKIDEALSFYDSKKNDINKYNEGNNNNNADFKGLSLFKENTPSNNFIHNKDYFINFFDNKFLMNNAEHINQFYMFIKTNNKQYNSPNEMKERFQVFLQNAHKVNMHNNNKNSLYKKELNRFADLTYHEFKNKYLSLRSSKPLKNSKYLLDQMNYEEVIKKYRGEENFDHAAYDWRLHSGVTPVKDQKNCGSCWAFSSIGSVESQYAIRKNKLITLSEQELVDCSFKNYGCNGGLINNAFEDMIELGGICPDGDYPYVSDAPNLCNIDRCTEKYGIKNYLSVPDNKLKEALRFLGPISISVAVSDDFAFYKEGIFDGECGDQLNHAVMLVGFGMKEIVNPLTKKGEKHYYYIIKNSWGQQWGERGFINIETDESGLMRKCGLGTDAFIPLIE
Kind of assay: Inhibitory activity against Falcipain-2; no effect.

The next assay concerns the target Rhodesain (Trypanosoma brucei rhodesiense, UniProt Q95PM0). Kind of assay: Inhibitory activity against Trypanosoma brucei rhodesiense cysteine protease rhodesain.
Assay [2] has as its target T2, Cruzipain (Trypanosoma cruzi, UniProt P25779). Kind of assay: Inhibitory activity against the Trypanosoma cruzi cysteine protease cruzain.
Assay [3] addresses T1, Falcipain 2. Kind of assay: Inhibitory activity against Falcipain-2.
For assay [4], the target named is T1, Falcipain 2. Kind of assay: Inhibitory activity against Falcipain-2; No effect.
For assay [5], the target named is T2, Cruzipain. Kind of assay: Inhibitory activity against Cruzain;range is 20-50.

T2 sequence (P25779 whole entry): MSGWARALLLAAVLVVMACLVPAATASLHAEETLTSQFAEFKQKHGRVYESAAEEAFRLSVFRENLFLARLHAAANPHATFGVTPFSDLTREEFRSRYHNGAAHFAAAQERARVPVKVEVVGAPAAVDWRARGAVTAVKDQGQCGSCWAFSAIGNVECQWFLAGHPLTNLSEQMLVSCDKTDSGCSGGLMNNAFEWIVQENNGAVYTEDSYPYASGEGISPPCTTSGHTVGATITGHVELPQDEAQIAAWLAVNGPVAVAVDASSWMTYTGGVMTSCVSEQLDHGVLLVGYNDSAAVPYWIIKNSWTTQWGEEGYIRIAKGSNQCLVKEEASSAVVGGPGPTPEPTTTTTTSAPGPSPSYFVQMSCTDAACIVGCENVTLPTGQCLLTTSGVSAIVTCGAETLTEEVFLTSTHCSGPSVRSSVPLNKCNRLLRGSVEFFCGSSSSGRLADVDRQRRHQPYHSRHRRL
Sequence of Rhodesain (Q95PM0 whole entry): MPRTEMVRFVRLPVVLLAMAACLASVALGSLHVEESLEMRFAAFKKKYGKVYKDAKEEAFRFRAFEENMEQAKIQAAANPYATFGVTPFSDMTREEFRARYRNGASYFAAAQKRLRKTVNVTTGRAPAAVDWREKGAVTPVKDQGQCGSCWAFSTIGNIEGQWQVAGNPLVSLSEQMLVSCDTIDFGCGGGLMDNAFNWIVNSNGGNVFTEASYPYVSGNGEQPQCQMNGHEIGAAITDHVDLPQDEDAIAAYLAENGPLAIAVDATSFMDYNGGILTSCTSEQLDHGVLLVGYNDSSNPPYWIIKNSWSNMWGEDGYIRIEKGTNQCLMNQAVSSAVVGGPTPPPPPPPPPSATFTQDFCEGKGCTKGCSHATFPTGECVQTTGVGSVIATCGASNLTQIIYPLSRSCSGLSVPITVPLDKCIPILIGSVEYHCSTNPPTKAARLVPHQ

Turning to `O=C1C(=O)N(Cc2ccccc2)c2ccccc21`, the IC50 result was “Not Active” at Falcipain 2 [1], more than 10 µM against Rhodesain and more than 10 µM against Cruzipain [2].

With `O=C1Nc2ccc(Br)cc2C1=O`, the values for the IC50 result against Falcipain 2 [1] and against Cruzipain [2] were “Not Active” and more than 10 µM, respectively.

As to `O=C1Nc2ccc(OC(F)(F)F)cc2C1=O`, the IC50 entry against Falcipain 2 [1] was “Not Active”; against Rhodesain, more than 10 µM; against Cruzipain [2] it was more than 10 µM.

Consider `Cc1ccc2c(c1)C(=O)C(=O)N2Cc1ccc(Cl)cc1`, for which the results for the IC50 entry against Falcipain 2 [1], against Rhodesain and against Cruzipain [2] were “Not Active”, more than 10 µM and more than 10 µM, respectively.

In the case of `Cc1ccc2c(c1)C(=O)C(=O)N2Cc1ccccc1-c1ccccc1`, the IC50 against Falcipain 2 [3] was 9.2 µM; on Rhodesain, more than 10 µM; on Cruzipain [2], 2.8 µM.

Take `Cc1cc(C)c2[nH]c(O)c(/N=N/C(=N)S)c2c1`: the results for the IC50 at Falcipain 2 [3], against Rhodesain and against Cruzipain [2] were 13.2 µM, 15 µM and 16 µM, respectively.

Take `Cc1cc(Cl)cc2c(/N=N/C(=N)S)c(O)[nH]c12`: the IC50 amounted to 9.4 µM against Falcipain 2 [3], 3 µM against Rhodesain and 10.5 µM at Cruzipain [2].

For `O=C1C(=O)N(Cc2ccccc2)c2ccc(I)cc21`, the values for the IC50 against Rhodesain and at Cruzipain [2] were more than 10 µM and 90 µM, respectively.

For `Cc1ccc(C)c(CN2C(=O)C(=O)c3cc(C)ccc32)c1`, the results for the IC50 entry at Falcipain 2 [1], against Rhodesain and on Cruzipain [2] were “Not Active”, more than 10 µM and 80 µM, respectively.

`O=C1C(=O)N(C(=O)OCc2ccccc2)c2ccc(F)cc21`: the half-inhibitory concentration (IC50) against Rhodesain and at Cruzipain [2] was more than 10 µM each time.

As to `O=C1C(=O)N(C(=O)c2ccccc2)c2ccccc21`, the IC50 entry on Falcipain 2 [1] was “Not Active”; on Rhodesain, 100 µM.

For the compound `Cc1ccc2c(c1)C(=O)C(=O)N2`, the IC50 entry against Falcipain 2 [4] is “Not Active”; against Cruzipain [2], more than 10 µM.

`NC(=S)/N=N/c1c(O)[nH]c2ccc(Cl)cc12`: the IC50 is 32.8 µM on Falcipain 2 [3], 6 µM against Rhodesain and 21 µM against Cruzipain [2].

Regarding `Cc1ccc2[nH]c(O)c(/N=N/C(=N)S)c2c1`, the IC50 against Falcipain 2 [3] was determined as 43.9 µM; against Rhodesain it was 15 µM; against Cruzipain [5], 50 µM.

In the case of `NC(=S)/N=N/c1c(O)[nH]c2ccc(I)cc12`, the IC50 worked out at 28.7 µM against Falcipain 2 [3], 1 µM at Rhodesain and 9 µM at Cruzipain [2].

With `O=C1C(=O)N(C(=O)OCc2ccccc2)c2ccccc21`, the IC50 result was “Not Active” against Falcipain 2 [1] and 30 µM at Rhodesain.

Consider `NC(=S)/N=N/c1c(O)[nH]c2ccc(F)cc12`, for which the results for the IC50 against Falcipain 2 [3], on Rhodesain and at Cruzipain [2] were 38.6 µM, 15 µM and 30 µM, respectively.

Turning to `O=C1C(=O)N(S(=O)(=O)c2ccccc2)c2ccccc21`, the IC50 entry at Falcipain 2 [1] was “Not Active”; on Rhodesain it was 15 µM.

For `COc1cccc(CN2C(=O)C(=O)c3cc(Cl)ccc32)c1`, the IC50 is 34.6 µM on Falcipain 2 [3], more than 10 µM against Rhodesain and more than 10 µM on Cruzipain [2].

Regarding `NC(=S)/N=N/c1c(O)[nH]c2ccc([N+](=O)[O-])cc12`, the IC50 came to 4.4 µM against Falcipain 2 [3], 17 µM against Rhodesain and 30 µM against Cruzipain [2].

Turning to `COc1cccc(CN2C(=O)C(=O)c3cc(C)ccc32)c1`, the concentration for half-maximal inhibition (IC50) against Falcipain 2 [3] was 21.9 µM; on Rhodesain, more than 10 µM; against Cruzipain [2], 2 µM.

In the case of `O=C1C(=O)N(C(=O)OCc2ccccc2)c2ccc(Cl)cc21`, the IC50 result was “Not Active” against Falcipain 2 [1], more than 10 µM against Rhodesain and 80 µM on Cruzipain [2].

Take `O=C1Nc2ccc(Cl)cc2C1=O`: the IC50 result is “Not Active” on Falcipain 2 [1] and more than 10 µM on Cruzipain [2].

With `O=C1C(=O)N(Cc2ccc(Cl)cc2)c2ccc(Cl)cc21`, the IC50 against Falcipain 2 [3] is 31.2 µM; on Rhodesain, more than 10 µM; on Cruzipain [2] it was 6 µM.

`NC(=S)/N=N/c1c(O)[nH]c2ccccc12`: the IC50 was determined as 38.8 µM on Falcipain 2 [3], 3.5 µM against Rhodesain and 8 µM against Cruzipain [2].

For `Cc1cc(C)c2c(c1)C(=O)C(=O)N2`, the IC50 entry at Falcipain 2 [1] was “Not Active”; against Cruzipain [2], more than 10 µM.

Consider `O=C1C(=O)N(Cc2ccccc2)c2ccc(Cl)cc21`, for which the IC50 was 46.9 µM against Falcipain 2 [3], more than 10 µM on Rhodesain and 90 µM at Cruzipain [2].

On to `NC(=S)/N=N/c1c(O)[nH]c2ccc(Br)cc12`, for which the IC50 was found to be 29.6 µM at Falcipain 2 [3], 7 µM on Rhodesain and 20 µM at Cruzipain [2].

In the case of `CN1C(=O)C(=O)c2ccccc21`, the IC50 result was “Not Active” against Falcipain 2 [1] and more than 10 µM at Cruzipain [2].

As to `O=C1Nc2ccc(F)cc2C1=O` [5-FLUOROISATIN], the IC50 result at Falcipain 2 [1] is “Not Active”; at Cruzipain [2] it was more than 10 µM.

`O=C1Nc2ccc(I)cc2C1=O` [5-IODOISATIN]: the figures for the IC50 result against Falcipain 2 [1] and against Cruzipain [2] were “Not Active” and more than 10 µM, respectively.

For the compound `O=C1Nc2ccc([N+](=O)[O-])cc2C1=O` [5-NITROISATIN], the IC50 was 42.6 µM against Falcipain 2 [3], more than 10 µM at Rhodesain and more than 10 µM against Cruzipain [2].

Take `O=C1Nc2ccccc2C1=O` [ISATIN]: the IC50 entry was “Not Active” against Falcipain 2 [4], more than 10 µM against Rhodesain and more than 10 µM on Cruzipain [2].

For the compound `O=C1C(=O)N(c2ccccc2)c2ccccc21` [PHENYL ISATIN], the IC50 entry against Falcipain 2 [1] was “Not Active”; on Cruzipain [2] it was more than 10 µM.
